The values that follow come from paper PMC9691367, “The PROTAC selectively degrading Bcl-xL represents a novel Hedgehog pathway inhibitor with capacity of combating resistance to Smoothened inhibitors while sparing bone growth” (Theranostics, 2022).

For one data set, the system named is platelets. Description: Platelet toxicity assay in C57BL/6J mice. The data set is classed as in vivo, mouse. The settings on record: 8 h and 24 h. An excerpt: Blood was collected at different time points via retro-orbital bleeding in anticoagulation tube. Platelets or different blood cells were enumerated using BM800 blood analyzer (Bowlinman Sunshine).
The next data set concerns Gli1 and Ptch1 mRNA. Put plainly: RT-qPCR of Hh target genes in NIH-3T3 cells exposed to SAG. Particulars: 36 h. The data set is classed as cell-based. On the procedure: Total RNA was extracted from cells or tissues using the NucleoSpin RNA kit (#740955.50, TaKaRa). RNA reverse transcriptions were performed with PrimeScript RT Reagent Kit with RNase inhibitor (#RR037B, TaKaRa). The quantitative PCR amplifications were performed in triplicate with TB Green Premix Ex Taq (Tli RNase H Plus) (#RR420A, TaKaRa) in an iCycler iQ system (Bio-Rad; Hercules, CA). Relative gene expression for interested genes was calculated using the 2^-ΔΔCt method and normalized to mGUSB expression. Primer sequences for RT-qPCR are as follows: mGli1 forward (5′-[…]-3′), reverse (5′-[…]-3′); mPtch1 forward (5′-[…]-3′), reverse (5′-[…]-3′); mGUSB forward (5′-[…]-3′), reverse (5′-[…]-3′).

The subject of data set [1] is light II and NIH-3T3 cells. Description: In vitro cytotoxicity assay (MTT). The data set is classed as cell-based. Particulars: 10 μM, 72 h. On the procedure:
Cells were seeded in 96-well plates at an appropriate density and treated with compounds for 72 h. The effects on proliferation were determined using MTT according to the manufacturer's protocol.
Figure S2. (A) Viability of NIH-3T3 cells and light II cells was determined by MTT cytotoxicity assays after incubation with various concentrations of SIAIS361034 as indicated for 72 h. Data represent mean ± SD (n = 3). (B) NF-κB luciferase analysis of the effect of SIAIS361034 on NF-κB signaling pathway in 293T cells.The 293T cells were transfected with NF-κB luciferase reporter and Renilla-TK plasmids and […]
μM) for 6 h. Data represent mean ± SD (n = 3). (C) TCF/LEF luciferase analysis of the effect of SIAIS361034 on Wnt signaling pathway in LS174T cells. The LS174T cellswere transfected with TCF/LEF luciferase reporter and Renilla-TK plasmids and […]
Data represent mean ± SD (n = 3).
(1 picture or pasted object on this page, not shown here)

For the molecule `CC1(C)CCC(c2ccc(Cl)cc2)=C(CN2CCN(c3ccc(C(=O)NS(=O)(=O)c4ccc(NCCCN5CCN(CCCC#Cc6cccc7c6CN(C6CCC(=O)NC6=O)C7=O)CC5)c(S(=O)(=O)C(F)(F)F)c4)cc3)CC2)C1` (stereo not shown) [SIAIS361034], the number of platelets result in the data set on platelets (SIAIS361034 single i.p. 50 and 100 mg/kg, ABT-263 single p.o. 100 mg/kg) is listed as “no appreciable alterations”. Also, in the data set with platelets (single i.p. 50 and 100 mg/kg), the “other blood cells (neutrophils, red blood cells)” value is reported as “no influence”. For the same molecule, the “mRNA expression of Hh target genes Gli1 and Ptch1 activated by SAG” value in the data set on Gli1 and Ptch1 mRNA is reported as “significantly blocked”. Moreover, in data set [1], the “cytotoxicity (MTT)” value is “no toxic effects”.
